What all share (experiment): relative viability (nuclei count vs DMSO), 5 days (fraction); higher = more cells survive
Compound in assay [1]: CN1C=C(C2=CC=CC=C21)/C=C\3/C4=C(C=CC=N4)NC3=O + Cc1cc(Nc2cc(N3CCN(C)CC3)nc(Sc3ccc(NC(=O)C4CC4)cc3)n2)n[nH]1 [Tozasertib] (partner 0.1 µM)
In a few lines: (§1)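 Lung cancer cell lines in 1536-well plates got either a single drug or a fixed anchor-drug dose together with five library-drug doses (not always all listed) in √10 steps, by pin tool, on the day after seeding. Nuclei were counted after 5 days, and relative viability is the treated-to-vehicle ratio of nuclei counts. Values are medians of duplicate plates.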

Compound in the assay “Trametinib + Decitabine”: CC(=O)Nc1cccc(-n2c(=O)n(C3CC3)c(=O)c3c(Nc4ccc(I)cc4F)n(C)c(=O)c(C)c32)c1 [Trametinib] + Nc1ncn([C@H]2C[C@H](O)[C@@H](CO)O2)c(=O)n1 [Decitabine] (partner 2 µM)
The gist of the method: as §1

Compound in assay [2]: CN1C=C(C2=CC=CC=C21)/C=C\3/C4=C(C=CC=N4)NC3=O + CS(=O)(=O)CCNCc1ccc(-c2ccc3ncnc(Nc4ccc(OCc5cccc(F)c5)c(Cl)c4)c3c2)o1 [Lapatinib] (partner 2 µM)
In a few lines: as §1

Compound in assay [3]: CN1C=C(C2=CC=CC=C21)/C=C\3/C4=C(C=CC=N4)NC3=O + CC(=O)Nc1cccc(-n2c(=O)n(C3CC3)c(=O)c3c(Nc4ccc(I)cc4F)n(C)c(=O)c(C)c32)c1 [Trametinib] (partner 0.02 µM)
The gist of the method:
as §1

For the cell line NCI-H838, the relative viability in assay [1] (first compound 0.02 µM) turned out to be 0.264; in assay [1] (first compound 0.06325 µM), 0.223; in assay [1] (first compound 0.2 µM) it was 0.259; in assay [1] (first compound 0.6325 µM) it was 0.294; in assay [1] (first compound 2 µM), 0.257; with Trametinib + Decitabine (first compound 0.0025 µM), 0.466. Also, the relative viability worked out at 0.416 with Trametinib + Decitabine (first compound 0.007906 µM); 0.457 in the assay with Trametinib + Decitabine (first compound 0.025 µM); 0.448 in the assay with Trametinib + Decitabine (first compound 0.07906 µM); 0.403 in the assay with Trametinib + Decitabine (first compound 0.25 µM); 0.774 in assay [2] (first compound 0.02 µM); 0.9 in assay [2] (first compound 0.06325 µM). For the same cell line, the relative viability in assay [2] (first compound 0.2 µM) stood at 0.813; in assay [2] (first compound 0.6325 µM) it was 0.785; in assay [2] (first compound 2 µM), 0.896; in assay [3] (first compound 0.02 µM), 0.467; in assay [3] (first compound 0.06325 µM), 0.413; in assay [3] (first compound 0.2 µM), 0.527. Also, the relative viability turned out to be 0.469 in assay [3] (first compound 0.6325 µM) and 0.459 in assay [3] (first compound 2 µM).
As to LCLC-103H, the relative viability in assay [1] (first compound 0.02 µM) was found to be 0.313; in assay [1] (first compound 0.06325 µM) it was 0.506; in assay [1] (first compound 0.2 µM), 0.475; in assay [1] (first compound 0.6325 µM), 0.511; in assay [1] (first compound 2 µM) it was 0.536; in the assay with Trametinib + Decitabine (first compound 0.0025 µM), 0.754. In addition, the relative viability in the assay with Trametinib + Decitabine (first compound 0.007906 µM) turned out to be 0.68; with Trametinib + Decitabine (first compound 0.025 µM), 0.692; in the assay with Trametinib + Decitabine (first compound 0.07906 µM), 0.689; with Trametinib + Decitabine (first compound 0.25 µM), 0.596; in assay [3] (first compound 0.02 µM), 0.645; in assay [3] (first compound 0.06325 µM), 0.691. Besides, the values for the relative viability in assay [3] (first compound 0.2 µM), in assay [3] (first compound 0.6325 µM) and in assay [3] (first compound 2 µM) were 0.718, 0.667 and 0.681, respectively.
With NCI-H2342, the relative viability in assay [1] (first compound 0.02 µM) stood at 0.492; in assay [1] (first compound 0.06325 µM), 0.437; in assay [1] (first compound 0.2 µM), 0.556; in assay [1] (first compound 0.6325 µM), 0.438; in assay [1] (first compound 2 µM), 0.505; with Trametinib + Decitabine (first compound 0.0025 µM), 0.775. Moreover, the relative viability with Trametinib + Decitabine (first compound 0.007906 µM) was 0.69; with Trametinib + Decitabine (first compound 0.025 µM), 0.646; with Trametinib + Decitabine (first compound 0.07906 µM) it was 0.673; in the assay with Trametinib + Decitabine (first compound 0.25 µM), 0.637; in assay [3] (first compound 0.02 µM), 0.921; in assay [3] (first compound 0.06325 µM), 0.753. The relative viability in assay [3] (first compound 0.2 µM) was found to be 0.725; in assay [3] (first compound 0.6325 µM), 0.655; in assay [3] (first compound 2 µM) it was 0.686.
NCI-H522: the relative viability in assay [1] (first compound 0.02 µM) came to 0.562; in assay [1] (first compound 0.06325 µM), 0.575; in assay [1] (first compound 0.2 µM) it was 0.518; in assay [1] (first compound 0.6325 µM), 0.283; in assay [1] (first compound 2 µM), 0.556; in the assay with Trametinib + Decitabine (first compound 0.0025 µM), 0.783. In addition, the relative viability with Trametinib + Decitabine (first compound 0.007906 µM) worked out at 0.602; with Trametinib + Decitabine (first compound 0.025 µM) it was 0.678; with Trametinib + Decitabine (first compound 0.07906 µM) it was 0.64; with Trametinib + Decitabine (first compound 0.25 µM) it was 0.672; in assay [3] (first compound 0.02 µM), 0.746; in assay [3] (first compound 0.06325 µM), 0.712. Further, the results for the relative viability in assay [3] (first compound 0.2 µM), in assay [3] (first compound 0.6325 µM) and in assay [3] (first compound 2 µM) were 0.793, 0.752 and 0.852, respectively.
With EBC-1, the relative viability in assay [2] (first compound 0.02 µM) is 0.197; in assay [2] (first compound 0.06325 µM), 0.201; in assay [2] (first compound 0.2 µM), 0.177; in assay [2] (first compound 0.6325 µM) it was 0.232; in assay [2] (first compound 2 µM), 0.2.
For the cell line ChaGo-K-1, the relative viability in assay [1] (first compound 0.02 µM) is 0.194; in assay [1] (first compound 0.06325 µM) it was 0.221; in assay [1] (first compound 0.2 µM) it was 0.212; in assay [1] (first compound 0.6325 µM) it was 0.214; in assay [1] (first compound 2 µM), 0.201; with Trametinib + Decitabine (first compound 0.0025 µM), 0.52. Moreover, the relative viability is 0.494 with Trametinib + Decitabine (first compound 0.007906 µM); 0.576 with Trametinib + Decitabine (first compound 0.025 µM); 0.467 in the assay with Trametinib + Decitabine (first compound 0.07906 µM); 0.497 in the assay with Trametinib + Decitabine (first compound 0.25 µM); 0.864 in assay [3] (first compound 0.02 µM); 0.917 in assay [3] (first compound 0.06325 µM). Also, the relative viability stood at 0.868 in assay [3] (first compound 0.2 µM), 0.871 in assay [3] (first compound 0.6325 µM) and 0.871 in assay [3] (first compound 2 µM).
As for IA-LM, the relative viability was determined as 0.947 in assay [2] (first compound 0.02 µM); 0.617 in assay [2] (first compound 0.06325 µM); 0.546 in assay [2] (first compound 0.2 µM); 0.65 in assay [2] (first compound 0.6325 µM); 0.448 in assay [2] (first compound 2 µM).
In the same order, the values of NCI-H1703 are 0.962, 0.941, 1.11, 1.25 and 1.29.
Take A549: the relative viability turned out to be 0.224 with Trametinib + Decitabine (first compound 0.0025 µM); 0.245 in the assay with Trametinib + Decitabine (first compound 0.007906 µM); 0.209 with Trametinib + Decitabine (first compound 0.025 µM); 0.168 with Trametinib + Decitabine (first compound 0.07906 µM); 0.0957 with Trametinib + Decitabine (first compound 0.25 µM); 1.08 in assay [2] (first compound 0.02 µM). Moreover, the relative viability in assay [2] (first compound 0.06325 µM) turned out to be 0.873; in assay [2] (first compound 0.2 µM) it was 0.91; in assay [2] (first compound 0.6325 µM) it was 0.932; in assay [2] (first compound 2 µM), 1.05.
Regarding NCI-H1623, the relative viability in assay [1] (first compound 0.02 µM) is 0.384; in assay [1] (first compound 0.06325 µM), 0.431; in assay [1] (first compound 0.2 µM), 0.358; in assay [1] (first compound 0.6325 µM) it was 0.384; in assay [1] (first compound 2 µM) it was 0.497.
In the case of NCI-H1563, the relative viability in assay [2] (first compound 0.02 µM) came to 1.2; in assay [2] (first compound 0.06325 µM), 0.977; in assay [2] (first compound 0.2 µM), 0.912; in assay [2] (first compound 0.6325 µM), 0.926; in assay [2] (first compound 2 µM) it was 1.02.
Consider NCI-H1792, for which the relative viability with Trametinib + Decitabine (first compound 0.0025 µM) was 0.436; in the assay with Trametinib + Decitabine (first compound 0.007906 µM) it was 0.443; with Trametinib + Decitabine (first compound 0.025 µM) it was 0.318; with Trametinib + Decitabine (first compound 0.07906 µM), 0.364; with Trametinib + Decitabine (first compound 0.25 µM), 0.291; in assay [2] (first compound 0.02 µM), 0.588. Moreover, the relative viability in assay [2] (first compound 0.06325 µM) stood at 0.96; in assay [2] (first compound 0.2 µM), 0.8; in assay [2] (first compound 2 µM) it was 0.672; in assay [3] (first compound 0.02 µM), 0.474; in assay [3] (first compound 0.06325 µM), 0.54; in assay [3] (first compound 0.2 µM) it was 0.462. In addition, the values for the relative viability in assay [3] (first compound 0.6325 µM) and in assay [3] (first compound 2 µM) were 0.353 and 0.406, respectively.
As to ABC-1, the relative viability in assay [1] (first compound 0.02 µM) amounted to 0.173; in assay [1] (first compound 0.06325 µM) it was 0.18; in assay [1] (first compound 0.2 µM), 0.172; in assay [1] (first compound 0.6325 µM), 0.173; in assay [1] (first compound 2 µM) it was 0.183; with Trametinib + Decitabine (first compound 0.0025 µM), 0.884. Also, the relative viability came out at 1.16 with Trametinib + Decitabine (first compound 0.007906 µM); 1.02 with Trametinib + Decitabine (first compound 0.025 µM); 1.24 with Trametinib + Decitabine (first compound 0.07906 µM); 0.837 in the assay with Trametinib + Decitabine (first compound 0.25 µM); 1.39 in assay [2] (first compound 0.02 µM); 1.16 in assay [2] (first compound 0.06325 µM). For the same cell line, the figures for the relative viability in assay [2] (first compound 0.2 µM), in assay [2] (first compound 0.6325 µM) and in assay [2] (first compound 2 µM) were 1.12, 1.25 and 1.28, respectively.
